Data: ChEMBL document CHEMBL1157539, “Thousands of chemical starting points for antimalarial lead identification” (Nature, 2010)

system: Plasmodium falciparum; assay: GSK_TCMDC: Inhibition of Plasmodium falciparum 3D7 in whole erythrocytes, using parasite LDH activity as an index of growth.; assay type: functional, organism-based; conditions: not given

Compound | XC50 [nM]
O=C(/C=C/c1ccc(Cl)c(Cl)c1)NCCCCCN1C2CCC1CC(c1c[nH]c3ccc(O)cc13)C2 (stereo not drawn) | 879

same assay, conditions: Plasmodium falciparum, 3D7

Compound | XC50 [nM]
COc1ccccc1C1CCN(C2CCC(NC(=O)c3ccc4[nH]c(-c5ccc(C)cc5)nc4c3)CC2)CC1 (stereo not drawn) | 308
CC1CC(NCCCNc2cc(=O)c3ccccc3[nH]2)c2c1cc(Cl)c(Cl)c2Cl (stereo not drawn) | 837
Cc1cc(N2CCN(C)CC2)nc2ccc(NC(=O)c3cccc(N(C)C)c3)cc12 | 954
CC(=O)Nc1cccc(C(=O)Nc2cccc(-c3ccc(-c4nc5cc(F)ccc5[nH]4)s3)c2)c1 | 896
COc1ccc(NC(=O)C2CCN(CCCCCNC(=O)/C=C/c3ccc(Cl)c(Cl)c3)CC2)cc1 | 828
Cc1cccc2nc(-c3cccc(-c4cccc(NC(=O)CN5CCN(C)CC5)c4)c3)[nH]c12 | 533
O=C(/C=C/c1ccc(Cl)cc1)NCCCCCN1CCCC(C(=O)Nc2ccc(F)c(Cl)c2)C1 (stereo not drawn) | 1120
COc1ccccc1OCCN(CC(O)COc1cccc2[nH]c3ccccc3c12)CC(O)COc1cccc2[nH]c3ccccc3c12 (stereo not drawn) | 636
CS(=O)(=O)Cc1ccc(Nc2nccc(N3CCCc4cc(NC(=O)Nc5cccc(C(F)(F)F)c5)ccc43)n2)cc1 | 148
CC(=O)c1ccc(-c2ccc(C(=O)NCCCCN3CCC(c4ccc5c(c4OCC(N)=O)CCCC5)CC3)cc2)s1 | 893
Cc1cc(N2CCCC2)nc(Nc2ccc(NC(=O)Nc3ccccc3)cc2)n1 | 165
Cc1cc2c(cc1C(F)(F)F)N(C(=O)Nc1cc(C(=O)NCCN(C)C)cc(C(F)(F)F)c1)CC2 | 730
CCOc1cc(C(=O)NCCN2CCCCC2)ccc1-c1nc2cc(Cl)ccc2[nH]1 | 1080
O=C(Nc1ccc(Cl)c(C(F)(F)F)c1)Nc1ccc(Cl)c(C(F)(F)F)c1 | 768
COc1ccc2c(c1)CCCC2NCCCCNC(=O)c1ccc(NC(=O)c2ccc(Cl)cc2)cc1 (stereo not drawn) | 381
CCOC(=O)c1ccc(OCc2ccc(-c3ccccc3)cc2)cc1 | 813
CCOC(=O)N(C)/N=C/[C@H](CCc1ccccc1)NC(=O)[C@H](CC(C)C)NC(=O)c1cc2cccc(OC)c2o1 | 556
CC(C)(C)c1ccc(NC(=O)c2ccc(CN3CCCN(Cc4cccc(O)c4)CC3)cc2)cc1 | 665
O=C(/C=C/c1ccc(Cl)c(Cl)c1)N1CCC(CN2CCC(c3c[nH]c4ccc(O)cc34)CC2)CC1 | 776
Nc1ccc(-c2nc3cc(C4=N[C@H]5CCCC[C@H]5N4)ccc3o2)cc1[N+](=O)[O-] | 1120
O=C(Cn1cc(C=C2SC(=NC3CCCC3)N(C3CCCC3)C2=O)c2ccccc21)N1CCCC1 | 297
CC[C@H]1CN2CC[C@H]1C[C@H]2[C@H](O)c1cc(-c2ccccc2C(F)(F)F)nc2ccc(OC)cc12 | 234
COc1c(C2CCN(CCCCNC(=O)c3ccc(-c4ccc(C#N)cc4)cc3)CC2)ccc2c1C(C)(C)CCC2(C)C | 411

Compound | XC50 [nM]
O=C(Nc1cccc(C(F)(F)F)c1)c1cccc(S(=O)(=O)NCC2CCCN(Cc3ccccc3)C2)c1 (stereo not drawn) | 1100
O=c1cc(NCCCNCc2ccc(Cl)c(Cl)c2)[nH]c2ccc(Cl)cc12 | 344
COc1cc2nc(N3CCC(CNC(=O)c4ccc(-c5ccccc5)cc4)CC3)nc(N)c2cc1OC | 574
COc1ccc(CNCc2ccc(-c3cccc(-c4nc5ccccc5[nH]4)c3)cc2)cc1 | 214
c1cc2[nH]c(CCCc3nc4cc(C5=N[C@H]6CCCC[C@H]6N5)ccc4[nH]3)nc2cc1C1=N[C@@H]2CCCC[C@@H]2N1 | 1240
CN1CCCc2ccc(NC(=O)c3ccc(-c4cc(C(F)(F)F)nn4C)s3)cc2C1 | 880
Cc1ccc(-c2cc3nc4c(c(NCCCn5ccnc5)n3n2)CCC4)cc1 | 925
Cc1c(C(C)(C)C)ccc2nc(N)nc(N)c12 | 8.73
COc1ccc2nccc([C@@H](O)CN3CCC(NCc4cc5cccc(OC)c5o4)CC3)c2c1 | 794
C=CCN(c1nc(NC)nc(NCc2c(OC)cccc2OC)n1)C1CCCC1 | 1460
CNC(=O)NC1=NC(C)(C)N(OCCCOc2cc(Cl)c(Cl)cc2Cl)C(N)=N1 | 935
C=CCOC(=O)N1CCC(CNCc2cccc(-c3cccc(-c4nc5ccccc5[nH]4)c3)c2)C1 (stereo not drawn) | 340
CC(=O)c1ccc2c(c1)C(NC(=O)c1cccc(Cl)c1Cl)C(CO)C(C)(C)O2 (stereo not drawn) | 687
COc1ccc2nccc(N3CCC(SCCNCc4ccc5c(n4)NC(=O)CS5)C3)c2n1 (stereo not drawn) | 253
COc1ccc(NC(=O)CSc2nc(-c3ccccc3Cl)ns2)cc1OC | 759
COc1ccc2nc3ccccc3c(NCCN3CCN(C)CC3)c2c1 | 1290
Oc1c(CN2CCC(Cc3ccccc3)CC2)cc(Cl)c2cccnc12 | 881
COCCNCc1ccc(-c2cccc(CNc3ccc(OC)cc3)c2)cc1 | 1040
CCN(CCO)CCc1cccc(Nc2nccc(-c3c(-c4ccc(NC(=O)C(C)(C)C)cc4)nn4ccccc34)n2)c1 | 714
OCC(c1ccccc1)n1c(COc2ccc(Cl)cc2)nc2c(OCCCN3CCCCC3)cccc21 (stereo not drawn) | 916
CCc1cccc(-n2c(=O)c3cccnc3n2CC(=O)NC2CCCC2)c1 | 932
CN1CCCC1CCNc1ncc2c(-c3ccc(NC(=O)Nc4cc(C(F)(F)F)ccc4F)cc3)nn(C)c2n1 (stereo not drawn) | 344
C=CCn1c(Sc2ccc(C#N)c([N+](=O)[O-])c2)nnc1-c1cccc(Cl)c1 | 301

Compound | XC50 [nM]
c1ccc(C2CCC(N3CCC(N4CCN(c5ccccc5)CC4)CC3)CC2)cc1 (stereo not drawn) | 764
N#Cc1ccc(Sc2nnc(-c3ccccc3Cl)n2CC2CCCCC2)cc1[N+](=O)[O-] | 1160
CN(C)CCNc1nccc(N2CCc3ncnc(Nc4ccc(OCc5cccc(F)c5)c(Cl)c4)c3C2)n1 | 138
Clc1ccc(/N=C(/NCCCCCCCN/C(=N\c2ccc(Cl)cc2)Nc2ccc(Cl)cc2)Nc2ccc(Cl)cc2)cc1 | 321
NC(=O)c1cccc(C(=O)Nc2cccc(-c3ccc(-c4nc5cc(C(F)(F)F)ccc5[nH]4)cc3)c2)c1 | 520
Cc1cccc(NC(=S)NC2CCN(CCCCCNC(=O)/C=C/c3ccc(Cl)c(Cl)c3)CC2)c1 | 948
O=C(NC(CCCN1CCC2(CC1)OCc1ccccc12)c1ccc(Cl)c(Cl)c1)c1cc(C(F)(F)F)cc(C(F)(F)F)c1 (stereo not drawn) | 543
COc1cc(Nc2nccc(N3CCC(NC(=O)Nc4ccc5c(c4)OCO5)C3)n2)cc(OC)c1OC (stereo not drawn) | 761
O=c1cc(NCCC(CNCCc2ccccc2)NCc2cc(Br)cc(Br)c2)[nH]c2ccccc12 (stereo not drawn) | 514
Cc1ccccc1CCNC(=O)c1ccc(N2CCN(c3ccncc3)CC2)nc1 | 1390
CC(C)c1ccc(Cn2cc(-c3ccncc3)c3cc(OCc4ccccc4)ccc32)cc1 | 706
CN1CCN(CCCSc2ccc3c(c2)ncn3-c2cc(OCc3ccccc3C(F)(F)F)c(C(N)=O)s2)CC1 | 439
COc1ccc(-c2csc3ncnc(Cl)c23)cc1OC | 769
Cc1cccc2nc(-c3ccc(-c4ccc(CN5CCOCC5)cc4)cc3)[nH]c12 | 818
c1ccc(Oc2ccc(Nc3ccnc(Nc4cccc(CNCCCN5CCOCC5)c4)n3)cc2)cc1 | 1040
CC1CC1C(=O)NC1CCN(CC2(c3ccccc3)CCCCC2)CC1 (stereo not drawn) | 637
Cc1cc(F)ccc1[C@H]1C[C@H](N2CCOCC2)CCN1C(=O)N(C)[C@@H](C)c1cc(C(F)(F)F)cc(C(F)(F)F)c1 | 764
CCOC(=O)c1ccc(NC(=O)Nc2cccc(-c3cccc(-c4nc5cccc(C)c5[nH]4)c3)c2)cc1 | 106
Cc1cccc2nc(-c3cccc(-c4ccc(NC(=O)C(C)CN(C)C)cc4)c3)[nH]c12 (stereo not drawn) | 222
O=C(/C=C/c1ccc(Cl)c(Cl)c1)NCCCCCN1C2CCC1CC(c1c[nH]c3ccc(O)cc13)C2 (stereo not drawn) | 998
COc1cccc(COCC(O)CN(CCc2ccccn2)C(=O)c2ccccc2F)c1 (stereo not drawn) | 825
CN(CCCN(C)c1cc(NC(=O)c2cccc(F)c2)ccn1)Cc1cccc(O)c1 | 1920
COc1ccc(Nc2ncc3c(-c4cccc(NC(=O)Cc5ccncc5)c4)c[nH]c3n2)cc1OC | 1230

Compound | XC50 [nM]
CNC(=O)C1Cc2c([nH]c3c(C)cccc23)C2(N1)C(=O)Nc1ccc(OC(F)(F)F)cc12 (stereo not drawn) | 464
CN1CCC(NC(=O)c2cc(Oc3ccc4c(c3)CCN4C(=O)Nc3cccc(C(F)(F)F)c3)ccn2)CC1 | 930
CC(Oc1c(C2CCN(CCCCNC(=O)c3ccc(-c4ccc(Cl)cc4)cc3)CC2)ccc2c1CCCC2)C(N)=O (stereo not drawn) | 948
COc1ccc2c(c1CNCCCCCCNCc1c(OC)ccc3c1CCCC3)CCCC2 | 907
Cc1ccc(NC(=O)c2cccc(CN3CCCN(CC4CCCCC4)CC3)c2)cc1F | 596
NC(=O)c1cccc(C(=O)Nc2cccc(-c3csc(-c4nc5ccccc5[nH]4)c3)c2)c1 | 133
CC(CN1CCN(C)CC1)C(=O)Nc1ccc(-c2cccc(-c3nc4cc(F)ccc4[nH]3)c2)cc1 (stereo not drawn) | 522
CN(C)CCCOc1ccccc1CN1CC[C@H](NC(=O)c2ccc(Cl)c(Cl)c2)C1 | 1110
O=C(Nc1ccc(C(=O)Nc2ccc(C3=NCCN3)cc2)cc1)Nc1ccc(C2=NCCN2)cc1 | 180
CC(C)CCNC(=O)[C@@H]1[C@H]2C(=O)N(C3CCCCC3)C(=O)[C@H]2[C@H]2C=C[C@@H]3C(c4ccc(C(C)(C)C)cc4)=NO[C@@H]3N21 | 788
COc1ccc(-c2cc(C(=O)N[C@@H](CC3CCCCC3)C(=O)NCCN3CCCC3)ccc2O)cc1 | 868
Fc1cccc(C=NN=c2cc[nH]c3ccccc23)c1 | 839
Cc1ccc2c(c1C)NC(=O)C21NN=C(c2ccccc2)S1 (stereo not drawn) | 749
CCCc1cc(=O)[nH]c(-n2nc(C)cc2NC(=O)CC(c2ccccc2)c2ccccc2)n1 | 618
CC1CCN(CCNC(=O)c2ccc3c(=O)n(Cc4ccc(Cl)cc4)c(=S)[nH]c3c2)CC1 | 704
O=c1ccccn1CCCC1CCCCN1 (stereo not drawn) | 809
O=C(O)c1ccc2nc(-c3ccccn3)c(-c3ccccn3)nc2c1 | 217
Cc1cccc(C(=O)Nc2ccnc(N3CCC(N(C)Cc4ccccc4)CC3)c2)c1 | 962
O=C(Nc1ccccc1N1CCOCC1)c1ncoc1-c1ccccc1C(F)(F)F | 1060
NCc1ccc(-c2ccccc2CN(C(=O)Nc2ccccc2)C2CCN(Cc3ccccc3)CC2)cc1 | 880
Cc1c(-c2ccc3c(c2)C(NCCCN2CCCCC2)CC3)cnc(N)c1C (stereo not drawn) | 1110
CCCC(C)c1ccc(N2C(N)=NC(N)=NC2(C)C)cc1 (stereo not drawn) | 6.27
CCCC(C)NC[C@@H](O)[C@H](Cc1ccccc1)NC(=O)c1cc(NCC)cc(N2CCCCS2(=O)=O)c1 (stereo partly drawn) | 163
